Experimental findings from BindingDB's records for patent US20240140931 (Hutchmed, 2024) are described below.

Some results are limits rather than exact numbers.

This experiment addresses T1, Tyrosine-protein phosphatase non-receptor type 11 (Homo sapiens, UniProt Q06124).
T1 sequence (Q06124 whole entry): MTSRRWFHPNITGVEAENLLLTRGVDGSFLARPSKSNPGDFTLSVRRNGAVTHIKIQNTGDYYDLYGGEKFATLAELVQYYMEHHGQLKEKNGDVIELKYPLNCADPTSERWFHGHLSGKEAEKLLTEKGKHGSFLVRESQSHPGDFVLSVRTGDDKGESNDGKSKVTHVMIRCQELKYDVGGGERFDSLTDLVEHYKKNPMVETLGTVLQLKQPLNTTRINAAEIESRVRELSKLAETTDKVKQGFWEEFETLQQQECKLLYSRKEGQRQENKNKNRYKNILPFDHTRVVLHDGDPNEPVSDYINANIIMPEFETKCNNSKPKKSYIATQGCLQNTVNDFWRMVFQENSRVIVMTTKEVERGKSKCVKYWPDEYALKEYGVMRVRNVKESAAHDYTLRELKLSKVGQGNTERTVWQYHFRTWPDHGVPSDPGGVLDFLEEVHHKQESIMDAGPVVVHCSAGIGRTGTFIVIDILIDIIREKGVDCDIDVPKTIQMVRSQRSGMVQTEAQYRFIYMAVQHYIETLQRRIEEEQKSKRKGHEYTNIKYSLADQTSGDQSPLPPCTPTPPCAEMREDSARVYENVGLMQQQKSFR
Put plainly: Assay of Full-Length SHP2 Phosphatase Activity Assay. The method, then:
1. Reagents and MaterialsHuman full-length SHP2 recombinant protein: BPS Bioscience, Cat #79018;SHP2 substrate DiFMUP (1 mM): BPS Bioscience, Cat #79769;SHP2 activating peptide (100 μM): BPS Bioscience, Cat #79319-2;DTT: Merck, Cat #DTT-RO;384-well plate: Corning, Cat #3575;96-well plate: Thermo Fisher Scientific, Cat #249952;Instrument: EnVision 2104, PerkinElmer.2. Preparation of Reaction SolutionsThe test compound was dissolved in DMSO and diluted with DMSO to 100.0 μM, and the compound was further 3-fold diluted with DMSO to: 100.00, 33.33, 11.11, 3.70, 1.23, 0.41, 0.14 and 0.05 μM.

A word on the IC50: it is the concentration needed to halve the response being measured. The low end stands for inhibition by little substance, the high end for a need for much substance. Consider `Cc1nc(N2CCC3(CC2)Cc2ccc(SC4COC4)cc2[C@H]3N)cc(=O)n1-c1cccc(Cl)c1Cl` [US20240140931, Compound 81], for which 2 nM corresponded to half-maximal inhibition (IC50). Turning to `C#Cc1ccc2c(c1)[C@@H](N)C1(CCN(c3cc(=O)n(-c4cc(OC)ccc4Cl)c(C)n3)CC1)C2` [US20240140931, Compound 44], the IC50 is 13 nM. The molecule `Cc1nc(N2CCC3(CC2)Cc2ccc(C#CCN(C)C)cc2[C@H]3N)cc(=O)n1-c1cccc(Cl)c1Cl` [US20240140931, Compound 52] yielded an IC50 below 0.5 nM.

In the case of `C#Cc1ccc2c(c1)[C@@H](N)C1(CCN(c3cc(=O)n(-c4ccc(F)c(F)c4Cl)c(C)n3)CC1)C2` (atropisomer, axis not shown) [US20240140931, Compound 113], 5 nM corresponded to half-maximal inhibition (IC50). Turning to `C#Cc1ccc2c(c1)[C@@H](N)C1(CCN(c3cc(=O)n(-c4cccc(C#N)c4Cl)c(C)n3)CC1)C2` [US20240140931, Compound 267], the IC50 was above 100 nM.

Molecule `C#Cc1ccc2c(c1)[C@@H](N)C1(CCN(c3cc(=O)n(-c4cccc(C#N)c4Cl)c(C)n3)CC1)C2` [US20240140931, Compound 268] showed an IC50 of 1 nM.
